Results taken from PMC7290285 (Viruses, 2020).
Counter-ions that a name gives are not always drawn. Like-named read-outs stand apart in the source and are kept apart here.

Key:
[1] = tested on: lentiviral particles with AZT-resistant RT mutant (eGFP) in HEK293T-mCat1 cells; test: microbe, parasite or virus in culture; format: cell-based, HIV-1
[2] = tested on: lentiviral particles with wild-type HIV-1 reverse transcriptase (mCherry) in HEK293T-mCat1 cells; test: microbe, parasite or virus in culture; format: cell-based
in vitro = conditions: human
[3] = tested on: luciferase lentiviral particles (wild-type RT) in HEK293T-mCat1 cells; test: Luciferase-based screening using HEK293T-mCat1 cells; conditions: for Identified as active in the luciferase assay / Relative inhibition [%] of luciferase (wild-type RT): 1 µM; for Identified as active in the luciferase assay: second LOPAC screen; for Relative inhibition [%] of luciferase (wild-type RT): normalized to 1 µM AZT = 100% and DMSO = 0%, HEK293T-mCat1, 3 days
HEK293T-mCat1 cells = conditions: 1 µM
PM1-mCat1 cells = test: Cytotoxicity determination (CellTiter-Glo) in PM1-mCat1 cell line; format: cell-based, human; conditions: PM1-mCat1 viability relative to DMSO
[4] = tested on: ecotropic pseudo-typed lentiviral particles (luciferase) in PM1-mCat1 cells; test: Luciferase-based viral integration assay using PM1-mCat1 cells
[5] = molecular target: mCherry-encoding lentiviral vectors (wild-type reverse transcriptase); test: Flow-cytometry based inhibitor analysis, mCherry vector; format: cell-based, HIV-1; conditions: Figure S2, read-out: IC50 of the wild-type virus, FC-based analysis
[6] = molecular target: eGFP-encoding lentiviral vectors (mutant reverse transcriptase); test: Flow-cytometry based inhibitor analysis, eGFP vector; format: cell-based, HIV-1; conditions: Figure S2, read-out: IC50 of the AZT-resistant mutant, FC-based analysis
[7] = tested on: HIV-1-derived lentiviral particles (wild-type RT and AZT-resistant RT mutant) in HEK293T-mCat1 cells; format: cell-based; conditions: 1 µM
HIV = tested on: HIV; parameters: method as in earlier work; conditions: read-out: reported IC50; cited from earlier work
[8] = Human immunodeficiency virus 1, 48 h; read-out: Relative inhibition [%] of eGFP (mutant RT)
[9] = Human immunodeficiency virus 1, 48 h; read-out: Relative inhibition [%] of mCherry (wild-type RT)
[10] = Human immunodeficiency virus 1, read-out: IC50 (in µM), viral integration assay

NC(=O)c1ncn([C@@H]2O[C@H](CO)[C@@H](O)[C@H]2O)n1 [Ribavirin]
inhibition at 1 µM [1, 8]: -73% | inhibition at 1 µM [2, 9]: -21% | viability at 1 µM (in vitro): 81%

Cc1c(O)cccc1C(=O)N[C@@H](CSc1ccccc1)[C@H](O)CN1C[C@H]2CCCC[C@H]2C[C@H]1C(=O)NC(C)(C)C [Nelfinavir mesylate hydrate]
inhibition at 1 µM [1, 8]: 49% | inhibition at 1 µM [2, 9]: 90% | viability at 1 µM (in vitro): 26%

Cc1cn([C@H]2C[C@H](N=[N+]=[N-])[C@@H](CO)O2)c(=O)[nH]c1=O [3‘-Azido-3‘-deoxythymidine]
Identified as active in the luciferase assay [3]: again identified | Relative inhibition [%] of luciferase (wild-type RT) [3]: 85% | Reduction of the luciferase signal ([3]; AZT control at 1 µM, HEK293T-mCat1): 50% | Viability [%] (HEK293T-mCat1 cells): 89% | Relative inhibition [%] of eGFP (mutant RT) ([1]; 1 µM): 38% | Relative inhibition [%] of mCherry (wild-type RT) ([2]; 1 µM): 73%

Nc1nc2c(ncn2COCCO)c(=O)[nH]1 [Acyclovir]
inhibition at 1 µM [1, 8]: -33% | inhibition at 1 µM [2, 9]: 41% | viability at 1 µM (in vitro): 88%

Nc1nccc2c1ncn2[C@@H]1O[C@H](CO)[C@@H](O)[C@H]1O [3-Deazaadenosine]
Viability [%] (HEK293T-mCat1 cells): 85% | Relative inhibition [%] of eGFP (mutant RT) ([1]; 1 µM): -34% | Relative inhibition [%] of mCherry (wild-type RT) ([2]; 1 µM): -25%

CC(=O)OCC(CCn1cnc2cnc(N)nc21)COC(C)=O [Famciclovir]
inhibition at 1 µM [1, 8]: 100% | inhibition at 1 µM [2, 9]: 100% | viability at 1 µM (in vitro): 7%

NC12CC3CC(CC(C3)C1)C2 [Amantadine hydrochloride]
inhibition at 1 µM [1, 8]: -29% | inhibition at 1 µM [2, 9]: 6% | viability at 1 µM (in vitro): 67%

O=C(Nc1ccccc1N1CCCCC1)c1cc(S(=O)(=O)N2CCOCC2)ccc1Cl [T6098586, ClC1=C(C=C(C=C1)S(=O)(=O)N1CCOCC1)C(=O)NC1=C(C=CC=C1)N1CCCCC1]
Concentration beyond which the compound is toxic (viability drops below 80%) (PM1-mCat1 cells): > 2000 nM | IC50 [4, 10]: 1.78 µM

Oc1ccc(C2CNCCc3c2cc(O)c(O)c3Cl)cc1 (stereo not shown) [Fenoldopam bromide]
inhibition at 1 µM ([3]; Human immunodeficiency virus 1, 72 h, read-out: Relative inhibition [%] of luciferase (wild-type RT)): -40% | inhibition at 1 µM ([1]; Human immunodeficiency virus 1, 48 h, read-out: Relative inhibition [%] of eGFP (mutant RT)): 65% | inhibition at 1 µM ([2]; Human immunodeficiency virus 1, 48 h, read-out: Relative inhibition [%] of mCherry (wild-type RT)): 61% | viability at 1 µM (in vitro): 73%

Nc1ccn([C@H]2CC[C@@H](CO)O2)c(=O)n1 [2',3'-Dideoxycytidine]
inhibition at 1 µM [1, 8]: 99% | inhibition at 1 µM [2, 9]: 100% | viability at 1 µM (in vitro): 7%

Cl.Nc1ccn([C@@H]2O[C@H](CO)[C@@H](O)[C@@H]2O)c(=O)n1 [Cytosine-1-beta-D-arabino-furanoside hydrochloride]
Identified as active in the luciferase assay [3]: again identified | Relative inhibition [%] of luciferase (wild-type RT) [3]: 211% | Viability [%] (HEK293T-mCat1 cells): 38% | Relative inhibition [%] of eGFP (mutant RT) ([1]; 1 µM): 95% | Relative inhibition [%] of mCherry (wild-type RT) ([2]; 1 µM): 98%

Nc1nc2c(ncn2CCOCP(=O)(O)O)c(=O)[nH]1 [PMEG hydrate]
IC50 [5]: 560 nM | Identified as active in the luciferase assay [3]: again identified | Relative inhibition [%] of luciferase (wild-type RT) [3]: 156% | Viability [%] (HEK293T-mCat1 cells): 54% | Residual transduction rate, eGFP encoding lentiviral particles, microscopy [1]: 5% | Relative inhibition [%] of eGFP (mutant RT) ([1]; 1 µM): 70% | IC50 [6]: 1200 nM | residual activity in the high-content screening [7]: 5% | Residual transduction rate, mCherry encoding lentiviral particles, microscopy [2]: 30% | Relative inhibition [%] of mCherry (wild-type RT) ([2]; 1 µM): 94% | IC50 (HIV): 200 nM

COc1ccc(N(Cc2ccccc2)S(=O)(=O)c2cccc(C(=O)NCc3ccncc3)c2)cc1 [T5435331, COC1=CC=C(C=C1)N(CC1=CC=CC=C1)S(=O)(=O)C1=CC(=CC=C1)C(=O)NCC1=CC=NC=C1]
IC50 [4, 10]: 3.14 µM

CCNC(=O)COC(=O)c1c(C)c(-c2cccc(Cl)c2)nc2ccccc12 [T0516-3343, CCNC(=O)COC(=O)C1=C2C=CC=CC2=NC(=C1C)C1=CC(Cl)=CC=C1]
IC50 ([4]; read-out: IC50 (in µM), viral integration assay, Table S3, PM1-mCat1, dose-response hit profiling): 6.07 µM

C=CCNC(=O)CN1CCN(c2nc3ccccc3s2)CC1 [T6471356, C=CCNC(=O)CN1CCN(CC1)C1=NC2=C(S1)C=CC=C2]
IC50 [4, 10]: 2.37 µM

COC(=O)c1ccc(C(=O)Nc2ncc(C)s2)cc1 [T5650116, COC(=O)C1=CC=C(C=C1)C(=O)NC1=NC=C(C)S1]
IC50 [4, 10]: 2.79 µM

N#Cc1ccccc1S(=O)(=O)N1CCC(CCc2ccccc2)CC1 [T5952497, O=S(=O)(N1CCC(CCC2=CC=CC=C2)CC1)C1=C(C=CC=C1)C#N]
IC50 [4, 10]: 4.27 µM

CS(=O)(=O)c1ccc(NC(=O)CNc2ccccc2-c2ccccc2)cc1 [T5950416, CS(=O)(=O)C1=CC=C(NC(=O)CNC2=C(C=CC=C2)C2=CC=CC=C2)C=C1]
IC50 [4, 10]: 2.08 µM

O=C(CSc1nnc(C2CC2)o1)NC(c1ccccc1)c1cccs1 (stereo not shown) [T5964141, O=C(CSC1=NN=C(O1)C1CC1)NC(C1=CC=CS1)C1=CC=CC=C1]
IC50 [4, 10]: 1.26 µM

COc1ccc(NS(=O)(=O)c2cccc(C(=O)NCC(c3ccc(OC)cc3)N3CCCCC3)c2)cc1 (stereo not shown) [T6213020, COC1=CC=C(NS(=O)(=O)C2=CC(=CC=C2)C(=O)NCC(N2CCCCC2)C2=CC=C(OC)C=C2)C=C1]
IC50 [4, 10]: 2.79 µM

Cc1nnc(C(=O)NC(C)(C)c2nc(C(=O)NCc3ccc(F)cc3)c(O)c(=O)n2C)o1 [Raltegravir, reference compound]
IC50 ([4]; Human immunodeficiency virus 1, read-out: IC50s during a 6-month period): 0.0021 to 0.0079 µM

Cc1oc(-c2ccccc2)nc1CN1CC(C(=O)N2CCCCC2)Oc2ccccc21 (stereo not shown) [T6329376, CC1=C(CN2CC(OC3=C2C=CC=C3)C(=O)N2CCCCC2)N=C(O1)C1=CC=CC=C1]
IC50 [4, 10]: 4.83 µM

CCOc1ncccc1C(=O)OCc1nc(N)c2c(C)c(C)sc2n1 [T5776163, CCOC1=C(C=CC=N1)C(=O)OCC1=NC2=C(C(C)=C(C)S2)C(N)=N1]
IC50 [4, 10]: 4.7 µM

c1csc(-c2csc3nc(CN4CCOCC4)nc(NN4CCCCC4)c23)c1 [T6026407, C(N1CCOCC1)C1=NC2=C(C(=CS2)C2=CC=CS2)C(NN2CCCCC2)=N1]
IC50 [4, 10]: 2.73 µM

O=C(Nc1ccc2c(c1)OCO2)c1cccc(N2CCCC2=O)c1 [T5821319, O=C(NC1=CC2=C(OCO2)C=C1)C1=CC(=CC=C1)N1CCCC1=O]
IC50 [4, 10]: 1.58 µM

Cc1ccc(-n2nnnc2Sc2nnnn2-c2ccccc2)c(C)c1 [T5595439, CC1=CC(C)=C(C=C1)N1N=NN=C1SC1=NN=NN1C1=CC=CC=C1]
IC50 [4, 10]: 2.98 µM

O=C(COc1ccccc1-c1ccccc1)NCc1ccccc1CN1CCOCC1 [T5781151, O=C(COC1=C(C=CC=C1)C1=CC=CC=C1)NCC1=C(CN2CCOCC2)C=CC=C1]
IC50 [4, 10]: 6.94 µM
